Data published in US7906522B2, “2-aminoquinazoline derivatives” (Kyowa Hakko Kirin Co., Ltd, priority 2005, dated 2011).

Target: T1, Activated human p38α (Homo sapiens, UniProt Q16539)
T1 construct: purchased Upstate Biotechnology Inc. 14-251
Assay: p38MAP kinase inhibition test
Type: biochemical
Conditions: at a concentration of 1 μmol/L; substrate myelin basic protein, ATP 20 μmol/L, [γ-32P]ATP; read-out: enzyme inhibitory activity
Procedure, shortened: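 Phosphorylation of myelin basic protein (20 μg/assay) by the kinase measured via [γ-32P]ATP incorporation at 20 μmol/L ATP, pH 7.2 MOPS buffer, 30° C. for 15 min. Labelled substrate bound to P81 paper, washed, and quantified by scintillation counting; compounds added in DMSO.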

T1 sequence (Q16539 whole entry): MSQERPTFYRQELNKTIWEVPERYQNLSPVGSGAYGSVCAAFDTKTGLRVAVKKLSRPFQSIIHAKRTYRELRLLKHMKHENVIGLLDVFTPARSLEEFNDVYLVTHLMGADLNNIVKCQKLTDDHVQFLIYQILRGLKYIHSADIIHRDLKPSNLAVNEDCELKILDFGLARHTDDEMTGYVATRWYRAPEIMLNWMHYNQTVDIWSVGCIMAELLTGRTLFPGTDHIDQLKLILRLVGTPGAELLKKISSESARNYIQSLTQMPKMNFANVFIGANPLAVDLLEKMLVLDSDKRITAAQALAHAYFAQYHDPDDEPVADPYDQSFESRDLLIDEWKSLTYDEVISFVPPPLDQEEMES

inhibition at 1 µM [%]	Structure (SMILES)
≥ 50	O=C(c1ccccc1)c1cc2cnc(NC3CCOCC3)nc2cc1O [Compound 138, 6-Benzoyl-7-hydroxy-2-(4-tetrahydropyranylamino)quinazoline]
≥ 50	N[C@H]1CC[C@H](Nc2ncc3cc(C(=O)c4ccccc4)c(O)cc3n2)CC1 [Compound 139, 2-(trans-4-Aminocyclohexylamino)-6-benzoyl-7-hydroxyquinazoline]
≥ 50	Cc1cccc(C)c1Nc1ncc2cc(C(=O)c3ccccc3)c(O)cc2n1 [Compound 140, 6-Benzoyl-2-(2,6-dimethylanilino)-7-hydroxyquinazoline]
≥ 50	O=C(c1ccccc1)c1cc2cnc(Nc3c(Cl)cccc3Cl)nc2cc1O [Compound 141, 6-Benzoyl-2-(2,6-dichloroanilino)-7-hydroxyquinazoline]
≥ 50	CCS(=O)(=O)N1CCC(Nc2ncc3cc(-c4ccccc4Cl)c(OC)cc3n2)CC1 [Compound 142, 6-(2-Chlorophenyl)-2-[1-(ethylsulfonyl)piperidin-4-ylamino]-7-methoxyquinazoline]
≥ 50	COc1cc2nc(NC3CCN(S(=O)(=O)C(C)C)CC3)ncc2cc1-c1ccccc1Cl [Compound 143, 6-(2-Chlorophenyl)-2-[1-(isopropylsulfonyl)piperidin-4-ylamino]-7-methoxyquinazoline]
≥ 50	COc1cc2nc(NCC3CCN(S(C)(=O)=O)CC3)ncc2cc1-c1ccccc1Cl [Compound 144, 6-(2-Chlorophenyl)-7-methoxy-2-[1-(methylsulfonyl)piperidin-4-ylmethylamino]quinazoline]
≥ 50	COc1cc2nc(NC3CCN(S(C)(=O)=O)C3)ncc2cc1-c1ccccc1Cl (stereo not drawn) [Compound 145, 6-(2-Chlorophenyl)-7-methoxy-2-[1-(methylsulfonyl)pyrrolidin-3-ylamino]quinazoline]
≥ 50	COc1cc2nc(N[C@H]3CC[C@H](NS(C)(=O)=O)CC3)ncc2cc1-c1ccccc1Cl [Compound 146, 6-(2-Chlorophenyl)-7-methoxy-2-[trans-4-(methylsulfonylamino)cyclohexylamino]quinazoline]
≥ 50	CCS(=O)(=O)N[C@H]1CC[C@H](Nc2ncc3cc(-c4ccccc4Cl)c(OC)cc3n2)CC1 [Compound 147, 6-(2-Chlorophenyl)-2-[trans-4-(ethylsulfonylamino)cyclohexylamino]-7-methoxyquinazoline]
≥ 50	CCCS(=O)(=O)N1CCC(Nc2ncc3cc(-c4ccccc4Cl)c(OC)cc3n2)CC1 [Compound 148, 6-(2-Chlorophenyl)-7-methoxy-2-[1-(1-propylsulfonyl)piperidin-4-ylamino]quinazoline]
≥ 50	CCOC(=O)N1CCC(Nc2ncc3cc(-c4ccccc4Cl)c(OC)cc3n2)CC1 [Compound 149, 6-(2-Chlorophenyl)-2-[1-(ethoxycarbonyl)piperidin-4-ylamino]-7-methoxyquinazoline]
≥ 50	COc1cc2nc(NCC(C)C)ncc2cc1-c1ccccc1Cl [Compound 151, 6-(2-Chlorophenyl)-2-isobutylamino-7-methoxyquinazoline]
≥ 50	COc1cc2nc(NC3CCNCC3)ncc2cc1-c1ccccc1Cl [Compound 152, 6-(2-Chlorophenyl)-7-methoxy-2-(piperidin-4-ylamino)quinazoline]
≥ 50	CC[C@H](C)Nc1ncc2cc(-c3ccccc3Cl)c(OC)cc2n1 [Compound 155, (S)-2-(sec-Butylamino)-6-(2-chlorophenyl)-7-methoxyquinazoline]
≥ 50	NC(=O)N1CCC(Nc2ncc3cc(-c4ccccc4Cl)c(O)cc3n2)CC1 [Compound 157, 2-(1-Carbamoylpiperidin-4-ylamino)-6-(2-chlorophenyl)-7-hydroxyquinazoline]
≥ 50	N[C@H]1CC[C@H](Nc2ncc3cc(-c4ccccc4Cl)c(O)cc3n2)CC1 [Compound 158, 2-(trans-4-Aminocyclohexylamino)-6-(2-chlorophenyl)-7-hydroxyquinazoline]
≥ 50	CC(C)CNc1ncc2cc(-c3ccccc3Cl)c(O)cc2n1 [Compound 160, 6-(2-Chlorophenyl)-7-hydroxy-2-isobutylaminoquinazoline]
≥ 50	CCCS(=O)(=O)N1CCC(Nc2ncc3cc(-c4ccccc4Cl)c(O)cc3n2)CC1 [Compound 162, 6-(2-Chlorophenyl)-7-hydroxy-2-[1-(1-propylsulfonyl)piperidin-4-ylamino]quinazoline]
≥ 50	COc1cc2nc(NC3CCN(S(C)(=O)=O)CC3)ncc2cc1-c1ccccc1C [Compound 164, 7-Methoxy-6-(2-methylphenyl)-2-[1-(methylsulfonyl)piperidin-4-ylamino]quinazoline]
≥ 50	COc1cc2nc(N[C@@H](C)CO)ncc2cc1-c1ccccc1C [Compound 165, (S)-2-(1-Hydroxy-2-propylamino)-7-methoxy-6-(2-methylphenyl)quinazoline]
≥ 50	CC[C@@H](C)Nc1ncc2cc(-c3ccccc3C)c(OC)cc2n1 [Compound 166, (R)-2-(sec-Butylamino)-7-methoxy-6-(2-methylphenyl)quinazoline]

inhibition at 1 µM [%]	Structure (SMILES)
≥ 50	COc1cc2nc(NC(C)(C)C)ncc2cc1-c1ccccc1C [Compound 167, 2-(tert-Butylamino)-7-methoxy-6-(2-methylphenyl)quinazoline]
≥ 50	COc1cc2nc(N[C@@H](C)C(C)C)ncc2cc1-c1ccccc1C [Compound 168, (S)-2-(3-methyl-2-butylamino)-7-methoxy-6-(2-methylphenyl)quinazoline]
≥ 50	Cc1ccccc1-c1cc2cnc(N[C@@H](C)C3CCCCC3)nc2cc1O [Compound 172, (S)-2-(1-cyclohexylethylamino)-7-hydroxy-6-(2-methylphenyl)quinazoline]
≥ 50	Cc1ccccc1-c1cc2cnc(N[C@@H](C)C(C)C)nc2cc1O [Compound 173, (S)-2-(3-methyl-2-butylamino)-7-hydroxy-6-(2-methylphenyl)quinazoline]
≥ 50	CCCC(CCC)Nc1ncc2cc(-c3ccccc3C)c(O)cc2n1 [Compound 174, 7-Hydroxy-6-(2-methylphenyl)-2-(4-heptylamino)quinazoline]
≥ 50	Cc1ccccc1-c1cc2cnc(Nc3c(C)cccc3C(C)C)nc2cc1O [Compound 177, 7-Hydroxy-2-(2-isopropyl-6-methylanilino)-6-(2-methylphenyl)quinazoline]
≥ 50	Cc1ccccc1-c1cc2cnc(Nc3c(Cl)cc([N+](=O)[O-])cc3Cl)nc2cc1O [Compound 179, 2-(2,6-Dichloro-4-nitroanilino)-7-hydroxy-6-(2-methylphenyl)quinazoline]
≥ 50	COc1cc2nc(NC(C)C)ncc2cc1-c1ccccc1CO [Compound 182, 6-[2-(Hydroxymethyl)phenyl]-2-isopropylamino-7-methoxyquinazoline]
≥ 50	COc1cc2nc(NC(C)C)ncc2cc1-c1ccccc1C#N [Compound 183, 6-(2-Cyanophenyl)-2-isopropylamino-7-methoxyquinazoline]
≥ 50	COc1cc2nc(NC(C)C)ncc2cc1-c1ccccc1C(=O)O [Compound 185, 6-(2-Carboxyphenyl)-2-isopropylamino-7-methoxyquinazoline]
≥ 50	COc1cc2nc(NC(C)C)ncc2cc1-c1ccccc1O [Compound 186, 6-(2-Hydroxyphenyl)-2-isopropylamino-7-methoxyquinazoline]
≥ 50	COc1cc2nc(NC(C)C)ncc2cc1-c1ccccc1C(C)=O [Compound 187, 6-(2-Acetylphenyl)-2-isopropylamino-7-methoxyquinazoline]
≥ 50	COc1cc2nc(NC(C)C)ncc2cc1-c1ccccc1C(=O)N1CCOCC1 [Compound 188, 2-Isopropylamino-7-methoxy-6-[2-(morpholinocarbonyl)phenyl]quinazoline]
≥ 50	COc1cc2nc(NC(C)C)ncc2cc1-c1ccccc1F [Compound 190, 6-(2-Fluorophenyl)-2-isopropylamino-7-methoxyquinazoline]
≥ 50	COc1cc2nc(NC(C)C)ncc2cc1-c1ccccc1C [Compound 191, 2-Isopropylamino-7-methoxy-6-(2-methylphenyl)quinazoline]
≥ 50	COc1cc2nc(NC(C)C)ncc2cc1-c1ccccc1C(F)(F)F [Compound 192, 2-Isopropylamino-7-methoxy-6-(2-trifluoromethylphenyl)quinazoline]
≥ 50	COc1ccccc1-c1cc2cnc(NC(C)C)nc2cc1OC [Compound 193, 2-Isopropylamino-7-methoxy-6-(2-methoxyphenyl)quinazoline]
≥ 50	COc1cc2nc(NC(C)C)ncc2cc1-c1cccc(OCc2ccccc2)c1 [Compound 195, 6-[3-(Benzyloxy)phenyl]-2-isopropylamino-7-methoxyquinazoline]
≥ 50	COc1cc2nc(NC(C)C)ncc2cc1-c1cccc(O)c1 [Compound 196, 6-(3-Hydroxyphenyl)-2-isopropylamino-7-methoxyquinazoline]
≥ 50	COc1cc2nc(NC(C)C)ncc2cc1-c1cccc(C=O)c1 [Compound 197, 6-(3-Formylphenyl)-2-isopropylamino-7-methoxyquinazoline]
≥ 50	COc1cc2nc(NC(C)C)ncc2cc1-c1cccc(C(C)=O)c1 [Compound 199, 6-(3-Acetylphenyl)-2-isopropylamino-7-methoxyquinazoline]
≥ 50	COc1cccc(-c2cc3cnc(NC(C)C)nc3cc2OC)c1 [Compound 201, 2-Isopropylamino-7-methoxy-6-(3-methoxyphenyl)quinazoline]

Structure (SMILES)	inhibition at 1 µM [%]
COc1cc2nc(NC(C)C)ncc2cc1-c1cccc(OC(C)=O)c1 [Compound 202, 6-(3-Acetoxyphenyl)-2-isopropylamino-7-methoxyquinazoline]	≥ 50
